# Data reported in patent publication US6924309B2 (Children, Youth and Women's Health Service Incorporated, priority 1999, dated 2005).
# Columns and labels:
# [1] = Thin film autoxidation of arachidonic acid with compounds 16-19 (HPLC)
# Description: Subsequently, the autoxidation of compounds 16-19 and their effects on the autoxidation of arachidonic acid were investigated. In these experiments, a thin film assay method was employed. For each reaction, arachidonic acid was mixed with one of the synthetic compounds 16, 17, 18 or 19 at 1:1 ratio with or without the radical initiator, azobisisobutyronitrile (AIBN). A reverse phase HPLC method was used to simultaneously measure the relative amounts of arachidonic acid and the synthetic compounds 16, 17, 18 or 19 recovered following 60 or 70 hours or 7 days of thin film autoxidation.
# [2] = Petri-dish thin film autoxidation of arachidonic acid with thia fatty acids and sulfides (HPLC)
# Method: A stock solution in dichioromethane (2 ml) containing arachidonic acid 1 (18 mg) and 3-[(3Z,6Z)-nona-3,6dienylthio]propionic acid 106 (18 mg) was prepared with lauric acid (18 mg) as an internal standard. Samples of the stock solution (100 μl) were added to glass Petri-dishes followed by ethanol (400 μl). After evaporation of the solvent, a well-distributed thin film was formed on each Petri-dish. The Petri-dishes were placed in a desiccator, which was then evacuated, filled with oxygen and stored in the darkness. Dishes were removed from the desiccator after 1, 2, 3, 5 and 7 days. The mixture on each dish was redissolved in diethyl ether and transferred to a 2 ml vial. After evaporation of the solvent, the residue was dissolved in the HPLC mobile phase (100 μl) and 10% of the solution was analysed by HPLC using a reverse phase column (octadecylsilane) (4.6 mm×250 mm, 3 μm) and a refractive index detector.
# Autoxidation of arachidonic acid was conducted in the presence of compound 19 and lauric acid. Stock solutions of arachidonic acid, compound 19 and lauric acid in dichloromethane with equal concentrations were added to a 25 ml round-bottomed flask, and the solvent was evaporated to leave a thin film on the internal surface of the flask. The flask was then filled with oxygen and kept in the dark. The percentages of arachidonic acid and compound 19 remaining after 7 days were measured by HPLC. The same assay was carried out simultaneously with several flasks but the results were not reproducible. The variation was attributed to differences in oxygen concentration and the surface area of the thin films formed in the flasks. Therefore, in order to establish a reproducible assay for the analysis of the autoxidation of arachidonic acid, Petri-dishes with uniform size (80 mm in diameter) were used instead of flasks for thin film formation and the oxidation was carried out by placing the Petri-dishes in a dessicator filled with oxygen. To assess this method, thin firms of arachidonic acid with lauric acid as a standard were prepared on six Petri-dishes using identical treatment, and then subjected to oxidation in the same dessicator filled with oxygen. After 24 h, the percentage of arachidonic acid recovered following autoxidation in each Petri-dish was determined by HPLC. […] The advantage of using a Petri-dish over a flask is that the thin films on each Petri-dish are spread over the same area, and each Petri-dish is exposed to oxygen to the same extent.
# Using the Petri-dish assay method, the effects of the thia PUFAs and sulfides 106 and 108-111, along with compounds 18, 19 and 3-[(Z,Z,Z)-(octadeca-9,12,15-trienylthio)] propionic acid 112 which were available in the laboratory, on the autoxidation of arachidonic acid, were examined. In addition, the stability of these compounds in the presence of arachidonic acid was also investigated. Arachidonic acid and lauric acid as a standard were mixed with each sulfur compound at different ratios and the mixtures were subjected to thin film autoxidation. The mixtures were analysed by HPLC after 1,2,3,5 and 7 days.
# [3] = Stability of thia fatty acids and sulfides as thin film under oxygen (1H NMR); assay type: physicochemical; details: darkness, up to six weeks
# Method: Compounds 110 (4.3 mg) and 106 (6 mg) were each dissolved in 5 ml of dichloromethane and added into 250 ml one-neck flasks. Compound 18 (20 mg) and compounds 19, 108, 109 and 111-112 (14-20 mg) were each dissolved in 10 ml of dichloromethane and added into 500 ml flasks. The solvent dichloromethane was then evaporated with continuous rotation of the flasks, allowing the compounds to form thin films. The flasks were flushed with oxygen, sealed and kept in darkness. The compounds in the flasks were redissolved in chloroform-d and analysed by ^1H NMR every two weeks for up to six weeks.
# To examine possible reasons for this lack of antioxidative activity, the chemical stability of compounds 18 and 109 in the absence of arachidonic acid was investigated. For comparison, the stability of compounds 19, 106, 108 and 110-112 was also examined. Each compound was studied as a thin film under oxygen as described above. Samples were removed and analysed by ^1H NMR spectroscopy regularly for up to six weeks. […] This is consistent with compound 109 decomposing in the presence of arachidonic acid, but not alone.
# [4] = Reaction with tert-butyl hydroperoxide to the sulfoxide; assay type: physicochemical; details: CH2Cl2, RT, after 9 h
# Description: To further investigate the possible involvement of hydroperoxide-induced sulfoxide formation in the antioxidant behaviour of the γ-thia and β-thia fatty acids 18, 19, 106, 108, 109 and 112, compounds 108 and 109 (in a ratio of 1:1 in CH2Cl2) were allowed to react with tert-butyl hydroperoxide. [drawing 37]
# The reaction was monitored by TLC and ^1H NMR analysis. […] The ^1H NMR spectrum of compound 114 contains two multiplets at δ2.88-3.07 and two doublets at δ3.63-3.86 corresponding to the methylene protons on the carbons adjacent to sulfur.
# [5] = ratio arachidonic acid:compound 1:1, 1 day
# [6] = ratio arachidonic acid:compound 1:1, 2 days
# [7] = ratio arachidonic acid:compound 1:1, 3 days
# [8] = ratio arachidonic acid:compound 1:1, 5 days
# [9] = ratio arachidonic acid:compound 1:1, 7 days
Compound,"Percentage of arachidonic acid recovered in the presence of the compound ([1]; ratio 1:1, 10% AIBN 60 h) [%]","Percentage of compound recovered (with arachidonic acid) ([1]; ratio 1:1, 10% AIBN 60 h) [%]","Percentage of arachidonic acid recovered in the presence of the compound ([1]; ratio 1:1, no additive 70 h) [%]","Percentage of compound recovered (with arachidonic acid) ([1]; ratio 1:1, no additive 70 h) [%]","Percentage of arachidonic acid recovered in the presence of the compound ([1]; ratio 1:1, no additive 7 day) [%]","Percentage of compound recovered (with arachidonic acid) ([1]; ratio 1:1, no additive 7 day) [%]","Autoxidation of arachidonic acid in the presence of the compound (in words) ([1]; ratio 1:1, with or without AIBN)",Antioxidant effect on autoxidation of arachidonic acid (in words) [2],"Arachidonic acid (%) recovered following autoxidation in the presence of the compound [2, 5] [%]","Compound (%) recovered following autoxidation with arachidonic acid [2, 5] [%]","Arachidonic acid (%) recovered following autoxidation in the presence of the compound [2, 6] [%]","Compound (%) recovered following autoxidation with arachidonic acid [2, 6] [%]","Arachidonic acid (%) recovered following autoxidation in the presence of the compound [2, 7] [%]","Arachidonic acid (%) recovered following autoxidation in the presence of the compound [2, 8] [%]","Arachidonic acid (%) recovered following autoxidation in the presence of the compound [2, 9] [%]",Chemical stability in the absence of arachidonic acid [3],"Compound (%) recovered following autoxidation with arachidonic acid [2, 7] [%]","Compound (%) recovered following autoxidation with arachidonic acid [2, 8] [%]","Compound (%) recovered following autoxidation with arachidonic acid [2, 9] [%]",Conversion to the sulfoxide by tert-butyl hydroperoxide [4]
"CCCCC/C=C\C/C=C\C/C=C\C/C=C\CCCCSCC(=O)O [Compound 18, (all-Z)-(eicosa-5,8,11,14-tetraenylthio) acetic acid]",87,57,98,99,68,28,substantial degree of autoxidation,not significantly inhibited,68,26,29,7,10,7,5,decomposed after 7 days,–,–,–,–
CCCCCCCCCCCCCCSCCC(=O)O [Compound 108],–,–,–,–,–,–,–,effective antioxidants,98,99,93,91,79,30,–,–,86,44,37,completely converted
"CCCCCCCCCCCCCCSCC(=O)O [Compound 109, 2-Tetradecylthioacetic acid]",–,–,–,–,–,–,–,not significantly inhibited,53,50,10,16,–,–,–,–,17,17,16,55%
